In patent US12365696B2, “Small-molecule focal adhesion kinase (FAK) inhibitors” (DANA-FARBER CANCER INSTITUTE, INC., priority 2019, dated 2025):
Where two headings read alike, the source gives them in different places.

Columns and labels:
Assay in all cases: KINOMEscan
Type in all cases: binding
[1] = molecular target: TRKA (Homo sapiens (Human), UniProt P04629); conditions: 10000 nM, read-out: Percent Control
[2] = molecular target: ERK8 (Homo sapiens (Human), UniProt Q8TD08); conditions: ERK8, 10000 nM; read-out: Percent Control
ERK8, sequence (Q8TD08 whole entry): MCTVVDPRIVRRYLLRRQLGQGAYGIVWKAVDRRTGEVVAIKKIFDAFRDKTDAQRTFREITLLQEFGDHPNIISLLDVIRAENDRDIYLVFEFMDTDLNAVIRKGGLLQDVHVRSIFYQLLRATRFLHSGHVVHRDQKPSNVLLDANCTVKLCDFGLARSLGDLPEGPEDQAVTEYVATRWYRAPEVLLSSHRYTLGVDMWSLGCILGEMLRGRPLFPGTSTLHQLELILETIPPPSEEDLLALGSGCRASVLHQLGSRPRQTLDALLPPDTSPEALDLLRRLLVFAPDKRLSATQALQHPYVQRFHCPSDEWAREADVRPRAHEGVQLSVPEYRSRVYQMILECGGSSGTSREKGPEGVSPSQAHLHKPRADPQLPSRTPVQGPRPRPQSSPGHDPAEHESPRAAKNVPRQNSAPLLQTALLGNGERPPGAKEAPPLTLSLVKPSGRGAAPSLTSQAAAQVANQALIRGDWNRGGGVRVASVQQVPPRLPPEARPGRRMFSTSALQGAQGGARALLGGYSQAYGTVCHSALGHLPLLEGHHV

[3] = molecular target: ACVR2A (Homo sapiens (Human), UniProt P27037); conditions: 10000 nM, read-out: Percent Control
[4] = molecular target: FGFR1 (Homo sapiens (Human), UniProt P11362); conditions: FGFR1, 10000 nM; read-out: Percent Control
[5] = molecular target: LIMK2 (Homo sapiens (Human), UniProt P53671); conditions: LIMK2, 10000 nM; read-out: Percent Control
[6] = molecular target: AURKB (Homo sapiens (Human), UniProt Q96GD4); conditions: 10000 nM, read-out: Percent Control
[7] = molecular target: FLT3 (Homo sapiens (Human), UniProt P36888); conditions: FLT3, 10000 nM; read-out: Percent Control
[8] = molecular target: GRK2 (Homo sapiens (Human), UniProt P25098); conditions: GRK2, 10000 nM; read-out: Percent Control
[9] = molecular target: TNIK (Homo sapiens (Human), UniProt Q9UKE5); conditions: 10000 nM, read-out: Percent Control
[10] = molecular target: CSNK1G2 (Homo sapiens (Human), UniProt P78368); conditions: CSNK1G2, 10000 nM; read-out: Percent Control
CSNK1G2, sequence (P78368 whole entry): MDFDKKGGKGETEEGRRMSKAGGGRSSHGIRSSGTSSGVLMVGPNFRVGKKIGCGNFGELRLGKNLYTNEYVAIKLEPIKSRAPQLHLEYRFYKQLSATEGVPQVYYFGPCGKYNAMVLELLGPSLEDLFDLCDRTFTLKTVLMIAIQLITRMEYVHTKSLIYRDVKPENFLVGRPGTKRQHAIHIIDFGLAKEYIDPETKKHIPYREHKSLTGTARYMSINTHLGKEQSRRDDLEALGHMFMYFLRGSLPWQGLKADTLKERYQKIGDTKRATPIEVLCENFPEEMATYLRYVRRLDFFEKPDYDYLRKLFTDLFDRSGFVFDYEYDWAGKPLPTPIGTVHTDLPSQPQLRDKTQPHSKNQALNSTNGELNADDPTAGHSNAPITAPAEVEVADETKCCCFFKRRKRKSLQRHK

[11] = molecular target: CDKL5 (Homo sapiens (Human), UniProt O76039); conditions: CDKL5, 10000 nM; read-out: Percent Control
[12] = molecular target: PAK4 (Homo sapiens (Human), UniProt O96013); conditions: PAK4, 10000 nM; read-out: Percent Control
[13] = molecular target: HIPK1 (Homo sapiens (Human), UniProt Q86Z02); conditions: HIPK1, 10000 nM; read-out: Percent Control
[14] = molecular target: YANK1 (Homo sapiens (Human), UniProt Q8WU08); conditions: YANK1, 10000 nM; read-out: Percent Control
[15] = molecular target: IRAK1 (Homo sapiens (Human), UniProt P51617); conditions: read-out: Percent Control
[16] = molecular target: CDK3 (Homo sapiens (Human), UniProt Q00526); conditions: CDK3, 10000 nM; read-out: Percent Control
[17] = molecular target: PRKCH (Homo sapiens (Human), UniProt P24723); conditions: 10000 nM, read-out: Percent Control
PRKCH, sequence (P24723 whole entry): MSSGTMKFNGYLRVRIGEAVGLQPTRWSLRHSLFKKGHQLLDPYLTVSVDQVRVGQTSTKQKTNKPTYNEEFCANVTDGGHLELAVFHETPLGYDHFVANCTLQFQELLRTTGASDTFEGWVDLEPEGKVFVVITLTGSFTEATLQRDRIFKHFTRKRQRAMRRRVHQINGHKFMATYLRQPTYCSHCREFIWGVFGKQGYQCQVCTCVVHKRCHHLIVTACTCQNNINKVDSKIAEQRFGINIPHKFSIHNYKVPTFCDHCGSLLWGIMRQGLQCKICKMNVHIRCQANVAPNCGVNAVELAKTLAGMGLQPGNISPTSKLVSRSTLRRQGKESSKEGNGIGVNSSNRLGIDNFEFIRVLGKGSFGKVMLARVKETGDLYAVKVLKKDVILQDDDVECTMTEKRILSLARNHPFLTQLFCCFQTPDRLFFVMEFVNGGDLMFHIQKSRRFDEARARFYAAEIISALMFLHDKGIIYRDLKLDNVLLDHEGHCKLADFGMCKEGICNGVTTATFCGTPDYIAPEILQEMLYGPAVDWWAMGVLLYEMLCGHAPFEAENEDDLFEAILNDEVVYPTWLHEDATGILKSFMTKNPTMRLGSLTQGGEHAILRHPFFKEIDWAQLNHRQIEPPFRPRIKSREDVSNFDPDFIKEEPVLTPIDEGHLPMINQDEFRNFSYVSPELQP

[18] = molecular target: RIPK2 (Homo sapiens (Human), UniProt O43353); conditions: RIPK2, 10000 nM; read-out: Percent Control
RIPK2, sequence (O43353 whole entry): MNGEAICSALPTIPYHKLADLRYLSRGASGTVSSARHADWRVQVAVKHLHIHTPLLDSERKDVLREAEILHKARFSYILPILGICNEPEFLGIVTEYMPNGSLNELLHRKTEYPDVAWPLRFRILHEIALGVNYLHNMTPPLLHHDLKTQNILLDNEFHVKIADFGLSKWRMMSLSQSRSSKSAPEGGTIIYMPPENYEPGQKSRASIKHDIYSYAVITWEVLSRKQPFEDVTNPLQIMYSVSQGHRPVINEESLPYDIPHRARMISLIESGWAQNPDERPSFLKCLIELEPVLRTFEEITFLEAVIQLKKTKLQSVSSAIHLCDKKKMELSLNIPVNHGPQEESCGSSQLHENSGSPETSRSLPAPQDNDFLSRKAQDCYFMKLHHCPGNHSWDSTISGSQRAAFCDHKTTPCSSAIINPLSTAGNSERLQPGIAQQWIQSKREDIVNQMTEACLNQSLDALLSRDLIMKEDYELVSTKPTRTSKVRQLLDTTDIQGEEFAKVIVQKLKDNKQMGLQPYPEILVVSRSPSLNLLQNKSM

[19] = molecular target: ASK1 (Homo sapiens (Human), UniProt Q99683); conditions: ASK1, 10000 nM; read-out: Percent Control
[20] = tested on: FLT3(ITD, D835V); conditions: 10000 nM
[21] = molecular target: CAMK1D (Homo sapiens (Human), UniProt Q8IU85); conditions: 10000 nM, read-out: Percent Control
[22] = molecular target: ABL1(Y253F)-phosphorylated (Homo sapiens (Human), UniProt P00519, Y253F); conditions: 10000 nM, read-out: Percent Control
[23] = molecular target: CAMKK2 (Homo sapiens (Human), UniProt Q96RR4); conditions: CAMKK2, 10000 nM; read-out: Percent Control
[24] = molecular target: KIT(D816V) (Homo sapiens (Human), UniProt P10721, D816V); conditions: 10000 nM, read-out: Percent Control
KIT(D816V), sequence (P10721 26-976 D816V): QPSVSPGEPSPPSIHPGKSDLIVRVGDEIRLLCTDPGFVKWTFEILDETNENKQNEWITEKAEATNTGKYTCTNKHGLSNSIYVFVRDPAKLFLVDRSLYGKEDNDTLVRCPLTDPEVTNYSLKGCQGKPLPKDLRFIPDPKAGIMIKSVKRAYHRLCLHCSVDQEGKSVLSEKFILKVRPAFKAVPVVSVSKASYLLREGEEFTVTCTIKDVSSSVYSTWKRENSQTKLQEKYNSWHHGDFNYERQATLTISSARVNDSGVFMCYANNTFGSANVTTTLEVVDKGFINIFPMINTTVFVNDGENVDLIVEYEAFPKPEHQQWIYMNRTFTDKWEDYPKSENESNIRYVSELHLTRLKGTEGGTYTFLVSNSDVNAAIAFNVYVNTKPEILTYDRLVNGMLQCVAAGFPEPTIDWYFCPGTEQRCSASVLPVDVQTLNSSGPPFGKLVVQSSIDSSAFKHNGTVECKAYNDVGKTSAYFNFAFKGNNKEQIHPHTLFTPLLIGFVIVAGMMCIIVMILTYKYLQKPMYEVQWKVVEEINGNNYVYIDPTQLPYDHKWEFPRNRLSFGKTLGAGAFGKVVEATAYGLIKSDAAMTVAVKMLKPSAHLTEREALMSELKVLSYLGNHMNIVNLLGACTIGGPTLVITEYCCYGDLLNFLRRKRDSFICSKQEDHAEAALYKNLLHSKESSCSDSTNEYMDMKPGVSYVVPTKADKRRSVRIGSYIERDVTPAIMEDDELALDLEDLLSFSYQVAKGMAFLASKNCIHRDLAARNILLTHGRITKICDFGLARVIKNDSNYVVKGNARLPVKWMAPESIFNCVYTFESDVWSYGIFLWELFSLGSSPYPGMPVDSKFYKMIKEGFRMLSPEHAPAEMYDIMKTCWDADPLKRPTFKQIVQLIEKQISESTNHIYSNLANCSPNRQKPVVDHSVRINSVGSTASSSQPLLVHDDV

[25] = molecular target: ABL1(H396P)-phosphorylated (Homo sapiens (Human), UniProt P00519, H396P); conditions: 10000 nM, read-out: Percent Control
[26] = molecular target: ITK (Homo sapiens (Human), UniProt Q08881); conditions: 10000 nM, read-out: Percent Control
ITK, sequence (Q08881 whole entry): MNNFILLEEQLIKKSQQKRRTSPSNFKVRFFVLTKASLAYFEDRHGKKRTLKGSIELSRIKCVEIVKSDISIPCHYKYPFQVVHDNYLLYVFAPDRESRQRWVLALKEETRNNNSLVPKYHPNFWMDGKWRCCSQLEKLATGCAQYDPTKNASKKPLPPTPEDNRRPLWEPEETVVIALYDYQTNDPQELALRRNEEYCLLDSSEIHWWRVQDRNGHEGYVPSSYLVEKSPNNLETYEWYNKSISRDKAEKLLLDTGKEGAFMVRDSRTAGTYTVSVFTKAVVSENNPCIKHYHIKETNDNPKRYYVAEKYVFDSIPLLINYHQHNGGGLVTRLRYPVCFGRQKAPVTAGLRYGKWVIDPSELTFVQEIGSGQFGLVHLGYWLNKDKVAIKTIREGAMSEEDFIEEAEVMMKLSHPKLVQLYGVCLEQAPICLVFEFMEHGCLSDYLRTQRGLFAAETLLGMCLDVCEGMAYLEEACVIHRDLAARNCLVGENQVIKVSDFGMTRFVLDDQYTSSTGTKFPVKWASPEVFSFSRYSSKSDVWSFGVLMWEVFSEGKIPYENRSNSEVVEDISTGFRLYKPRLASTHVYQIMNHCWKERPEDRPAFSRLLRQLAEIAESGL

[27] = molecular target: PCTK3 (Homo sapiens (Human), UniProt Q07002); conditions: PCTK3, 10000 nM; read-out: Percent Control
[28] = molecular target: BRAF(V600E) (Homo sapiens (Human), UniProt P15056, V600E); conditions: 10000 nM, read-out: Percent Control
[29] = molecular target: SRMS (Homo sapiens (Human), UniProt Q9H3Y6); conditions: 10000 nM, read-out: Percent Control
[30] = molecular target: EPHA8 (Homo sapiens (Human), UniProt P29322); conditions: EPHA8, 10000 nM; read-out: Percent Control
[31] = molecular target: ABL1(F317I)-nonphosphorylated (Homo sapiens (Human), UniProt P00519, F317I); conditions: 10000 nM, read-out: Percent Control
[32] = molecular target: RET(M918T) (Homo sapiens (Human), UniProt P07949, M918T); conditions: 10000 nM, read-out: Percent Control
RET(M918T), sequence (P07949 29-1114 M918T): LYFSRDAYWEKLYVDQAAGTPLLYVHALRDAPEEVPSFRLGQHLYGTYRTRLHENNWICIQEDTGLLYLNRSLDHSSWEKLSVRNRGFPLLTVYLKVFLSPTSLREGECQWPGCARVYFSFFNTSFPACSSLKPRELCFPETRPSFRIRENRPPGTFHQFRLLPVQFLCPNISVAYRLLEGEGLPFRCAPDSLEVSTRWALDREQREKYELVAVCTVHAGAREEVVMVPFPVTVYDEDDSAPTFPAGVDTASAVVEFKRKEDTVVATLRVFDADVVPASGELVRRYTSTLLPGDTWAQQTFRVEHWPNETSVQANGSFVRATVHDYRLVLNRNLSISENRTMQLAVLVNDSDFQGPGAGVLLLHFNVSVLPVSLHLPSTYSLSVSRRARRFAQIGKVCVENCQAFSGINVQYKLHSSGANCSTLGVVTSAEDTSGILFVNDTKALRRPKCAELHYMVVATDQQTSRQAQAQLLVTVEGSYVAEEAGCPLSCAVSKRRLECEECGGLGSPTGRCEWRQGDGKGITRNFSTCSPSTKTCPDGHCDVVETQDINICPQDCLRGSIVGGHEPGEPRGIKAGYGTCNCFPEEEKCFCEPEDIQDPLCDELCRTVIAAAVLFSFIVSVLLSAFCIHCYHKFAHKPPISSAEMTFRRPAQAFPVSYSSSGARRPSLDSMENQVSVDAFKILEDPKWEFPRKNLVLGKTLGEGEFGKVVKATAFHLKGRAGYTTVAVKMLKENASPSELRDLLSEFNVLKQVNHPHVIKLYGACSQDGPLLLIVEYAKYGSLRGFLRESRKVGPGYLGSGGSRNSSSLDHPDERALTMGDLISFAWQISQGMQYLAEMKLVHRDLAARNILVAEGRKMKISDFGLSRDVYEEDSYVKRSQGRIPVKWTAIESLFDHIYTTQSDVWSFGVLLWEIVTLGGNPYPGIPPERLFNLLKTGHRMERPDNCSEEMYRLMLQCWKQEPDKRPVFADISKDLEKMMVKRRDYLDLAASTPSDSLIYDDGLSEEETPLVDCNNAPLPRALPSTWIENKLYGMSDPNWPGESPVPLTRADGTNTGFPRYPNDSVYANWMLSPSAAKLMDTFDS

[33] = molecular target: MAK (Homo sapiens (Human), UniProt P20794); conditions: 10000 nM, read-out: Percent Control
[34] = molecular target: CLK4 (Homo sapiens (Human), UniProt Q9HAZ1); conditions: CLK4, 10000 nM; read-out: Percent Control

SMILES	remaining binding at 10 µM [1] [%]	remaining binding at 10 µM [2] [%]	remaining binding at 10 µM [3] [%]	remaining binding at 10 µM [4] [%]	remaining binding at 10 µM [5] [%]	remaining binding at 10 µM [6] [%]	remaining binding at 10 µM [7] [%]	remaining binding at 10 µM [8] [%]	remaining binding at 10 µM [9] [%]	remaining binding at 10 µM [10] [%]	remaining binding at 10 µM [11] [%]	remaining binding at 10 µM [12] [%]	remaining binding at 10 µM [13] [%]	remaining binding at 10 µM [14] [%]	remaining binding at 10 µM [16] [%]	remaining binding at 10 µM [17] [%]	remaining binding at 10 µM [18] [%]	remaining binding at 10 µM [19] [%]	Percent Control [20] [%]	remaining binding at 10 µM [21] [%]	further results
COc1cc(N2CCC(N3CCN(C)CC3)CC2)ccc1Nc1ncc2c(n1)N(C)c1sc(C)nc1C(=O)N2 [Compound 3, 6-((2-methoxy-4-(4-(4-methylpiperazin-1-yl)piperidin-1-yl)phenyl)amino)-2,4-dimethyl-4,9-dihydro-10H-pyrimido[5,4-b]thiazolo[5,4-e][1,4]diazepin-10-one]	100	86	76	75	91	100	100	100	94	81	97	65	83	77	87	89	88	74	100	98	remaining binding at 10 µM ([15]; IRAK1, 10000 nM): 100%; remaining binding at 10 µM [22]: 47%; remaining binding at 10 µM [23]: 80%; remaining binding at 10 µM [24]: 11%; remaining binding at 10 µM [25]: 19%; remaining binding at 10 µM [26]: 87%; remaining binding at 10 µM [27]: 90%; remaining binding at 10 µM [28]: 100%; remaining binding at 10 µM [29]: 78%; remaining binding at 10 µM [30]: 64%; remaining binding at 10 µM [31]: 3.8%; remaining binding at 10 µM [32]: 87%; remaining binding at 10 µM [33]: 71%; remaining binding at 10 µM [34]: 76%
COc1cc(N2CCC(N3CCN(C)CC3)CC2)ccc1Nc1ncc2c(n1)N(C)c1sc(C)nc1C(=O)N2C [Compound 5, 6-((2-methoxy-4-(4-(4-methylpiperazin-1-yl)piperidin-1-yl)phenyl)amino)-2,4,9-trimethyl-4,9-dihydro-10H-pyrimido[5,4-b]thiazolo[5,4-e][1,4]diazepin-10-one]	100	100	97	90	98	99	99	100	99	80	100	100	94	100	100	94	95	88	100	86	remaining binding at 10 µM ([15]; IRAKI, 10000 nM): 100%; remaining binding at 10 µM [22]: 100%; remaining binding at 10 µM [23]: 88%; remaining binding at 10 µM [24]: 100%; remaining binding at 10 µM [25]: 100%; remaining binding at 10 µM [26]: 99%; remaining binding at 10 µM [27]: 98%; remaining binding at 10 µM [28]: 97%; remaining binding at 10 µM [29]: 97%; remaining binding at 10 µM [30]: 100%; remaining binding at 10 µM [31]: 48%; remaining binding at 10 µM [32]: 100%; remaining binding at 10 µM [33]: 100%; remaining binding at 10 µM [34]: 85%
